Test results as given in ChEMBL document CHEMBL3596141, “Isolation and Structure Elucidation of Fujikurins A-D: Products of the PKS19 Gene Cluster in Fusarium fujikuroi” (J Nat Prod, 2015).
Active and inactive are the calls of the source. The calls are words filed in the database; no cut-off is given here.

System: HepG2
Assay: Cytotoxicity against human HepG2 cells assessed as cell viability up to 100 uM after 48 hrs by CCK-8 assay
Type: functional, cell-based

`CCC(C)C(=O)C1=C(O)C(C)C(C)OC1=O` (stereo unspecified) was tested, and the Activity was “inactive”.
